The target of assay [1] is T1, Replicase polyprotein 1ab (Severe acute respiratory syndrome coronavirus 2, UniProt P0DTD1). Kind of assay: Binding affinity to SARS-CoV-2 3CL protease extracted from Escherichia coli BL21 (DE3) Rosetta cells assessed as dissociation constant.
In assay [2] the target is T1, Replicase polyprotein 1ab. In words: Inhibition of SARS-CoV-2 3CL protease extracted from Escherichia coli BL21 (DE3) Rosetta cells using DabcylKNSTLQSGLRKE-Edan as substrate preincubated for 60 mins followed by substrate addition and measured after 20 mins by FRET assay.
The target of assay [3] is T1, Replicase polyprotein 1ab. Kind of assay: Binding affinity to SARS-CoV-2 3CL protease assessed as dissociation constant by SPR analysis. (Surface plasmon resonance follows binding to a sensor surface in real time, without labels.)
Assay [4] concerns the target T1, Replicase polyprotein 1ab. In words: Inhibition of SARS-CoV-2 3CL protease by FRET assay.

The structures appear in SMILES notation.

`CCC(C(=O)Nc1cc(NC2CCOCC2)ccc1C)n1cc(Cl)cc2nc(SCc3ccc(F)cc3)nc1-2` (stereo not given): the Kd – broadly, the free concentration of one partner at which half of the binding sites on the other are occupied at equilibrium, for simple one-to-one binding – in assay [1] came out at 1000 nM. The IC50 (as a rule, the concentration needed to halve the response being measured) in assay [2] amounted to 520 nM.

For the molecule `CCC(C(=O)Nc1cc(NC2CCOC2)ccc1C)n1cc(Cl)cc2nc(SCc3ccc(F)cc3)nc1-2` (stereo not given), the dissociation constant (Kd) in assay [1] was 1110 nM. As for `CCC(C(=O)Nc1cc(NC2COC2)ccc1C)n1cccc2nc(SCc3ccc(F)cc3)nc1-2` (stereo not given), the dissociation constant Kd in assay [3] was found to be 1400 nM.

Take `CCC(C(=O)Nc1cc(NC2CCNC2)ccc1C)n1cccc2nc(SCc3ccc(F)cc3)nc1-2` (stereo not given): 140 nM corresponded to half-maximal inhibition in assay [4] (IC50).

The values are drawn from BindingDB's records for PubMed 39288705 (Comenius University Bratislava).
